PMC3513622 (Antiviral research, 2012)
Where two headings read alike, the source gives them in different places.

Columns and labels:
EBV early protein EA-D = details: for EA-D expression (immunoblot) / level of hyperphosphorylated form of EA-D (top band): 24 hours after induction; for viral reactivation assessed by expression of EA-D, in words: concentration not stated at the place (Fig. 2: 1 and 10μM)
Epstein-Barr virus (EBV) [1] = details: for IC50: IgG induction, 0.0005-30μM, EBV genomes by qPCR
in vitro = details: human
Akata cells [2] = tested on: Akata cells
[3] = target: T1, EBV-encoded protein kinase (EBV-PK, BGLF4) (Epstein-Barr virus, UniProt P13288); assay: In vitro kinase assay of GST-BGLF4; type: biochemical; details: 10μM inhibitor, MBP substrate, 50μM ATP, filter binding
T1 sequence (P13288 1-429): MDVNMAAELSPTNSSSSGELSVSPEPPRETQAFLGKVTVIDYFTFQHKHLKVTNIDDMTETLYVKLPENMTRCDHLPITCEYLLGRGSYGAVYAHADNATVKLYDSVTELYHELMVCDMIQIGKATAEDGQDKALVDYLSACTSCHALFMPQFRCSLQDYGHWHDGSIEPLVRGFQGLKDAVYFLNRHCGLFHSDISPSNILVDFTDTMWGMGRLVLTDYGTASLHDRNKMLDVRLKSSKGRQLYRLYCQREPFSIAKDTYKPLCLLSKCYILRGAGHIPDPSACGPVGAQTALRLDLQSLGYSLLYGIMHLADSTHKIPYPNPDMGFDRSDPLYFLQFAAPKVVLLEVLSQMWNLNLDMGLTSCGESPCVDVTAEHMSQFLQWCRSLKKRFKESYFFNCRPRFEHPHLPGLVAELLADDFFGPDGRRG

Epstein-Barr virus (EBV) [4] = assay: microbe, parasite or virus in culture; details: human gammaherpesvirus 4, Akata, 48 h
[5] = Cell viability of Akata cells, modified MTS assay; details: human, latently EBV-infected Akata cells
[6] = tested on: human cytomegalovirus (HCMV) pUL97 protein kinase; details: 2002, cited from earlier work
EBV = details: ref Gershburg et al., 2004; Wang et al., 2009; Zacny et al., 1999; cited from earlier work
purified EBV-PK = details: ref Gershburg et al., 2004; Marschall et al., 2002; cited from earlier work
Akata cells [7] = assay: Cell viability of Akata cells, modified MTS assay; details: Akata cells, 48 hours, 0.0005-30μM, modified MTS assay
[8] = 10μM PKI, Akata cells, 48 hours after IgG induction

Compound: Nc1ncnc2c1c(I)cn2[C@@H]1O[C@H](CO)[C@@H](O)[C@H]1O [5-Iodotubercidin]
- EA-D expression (immunoblot) (EBV early protein EA-D; 1μM PKI, Fig. 2B): did not affect the expression of EA-D
- effect on EBV replication in words (Epstein-Barr virus (EBV) [1]; [8]): effective in inhibiting the EBV replication
- IC50 (Epstein-Barr virus (EBV) [1]; Akata cells, 48 hours): 890 nM

Compound: Nc1nc2c(ncn2COCCO)c(=O)[nH]1 [ACV, acyclovir]
- viability at 48 h, 50 μM (in vitro): 89 ± 4%
- reduction of viral replication relative to DMSO treatment (Epstein-Barr virus (EBV) [1]; 50μM ACV, Akata cells, 48 hours after IgG induction): 88±6%

Compound: Cc1ccc(S(=O)(=O)/C=C/C#N)cc1 [BAY 11-7082]
- EA-D expression (immunoblot) (EBV early protein EA-D; 1μM PKI, Fig. 2B): intermediate
- level of hyperphosphorylated form of EA-D (top band) (EBV early protein EA-D; 1μM PKI, Fig. 2B): more pronounced effect on the levels of the hyperphosphorylated form of EA-D
- expression levels of housekeeping genes (β-actin) (EBV early protein EA-D; 10μM, Fig. 2A): loss of β-actin
- effect on EBV replication in words (Epstein-Barr virus (EBV) [1]; 10μM PKI, Akata cells, 48 hours after IgG induction, listed as BAY-11-7082): effective in inhibiting the EBV replication
- effect on EBV replication in words (Epstein-Barr virus (EBV) [1]; 10μM PKI, Akata cells, 48 hours after IgG induction, listed as Bay 11-7082): inhibited viral replication
- IC50 (Epstein-Barr virus (EBV) [1]; Akata cells, 48 hours): 208 nM
- CC50 (Akata cells [2]): 2640 nM

Compound: COC(=O)/C=C/c1cc(O)ccc1O [Erbstatin analog]
- EA-D expression (immunoblot) (EBV early protein EA-D; 1μM PKI, Fig. 2B): did not affect the expression of EA-D
- viral reactivation assessed by expression of EA-D, in words (EBV early protein EA-D): did not inhibit viral reactivation
- effect on EBV replication in words (Epstein-Barr virus (EBV) [1]; [8]): inhibited EBV replication in cells
- IC50 (Epstein-Barr virus (EBV) [1]; Akata cells, 48 hours): 2370 nM

Compound: COC(=O)[C@@]1(O)C[C@H]2O[C@]1(C)n1c3ccccc3c3c4c(c5c6ccccc6n2c5c31)C(=O)NC4 [K252A]
- EA-D expression (immunoblot) (EBV early protein EA-D; 1μM PKI, Fig. 2B): no EA-D expression was detected
- viral reactivation assessed by expression of EA-D, in words (EBV early protein EA-D): block expression of EBV early protein EA-D
- TI (therapeutic index, CC50/IC50 ratio) (Epstein-Barr virus (EBV) [1]): 6
- inhibition of EBV replication relative to DMSO treatment (Epstein-Barr virus (EBV) [1]; 10μM PKI, Akata cells, 48 hours after IgG induction, mean ± sem of 3 experiments): 92±6%
- IC50 (Epstein-Barr virus (EBV) [1]; Akata cells, 48 hours): 14 nM
- inhibition of GST/EBV-PK activity relative to DMSO [3]: about 75%
- CC50 (Akata cells [2]): 80 nM

Compound: O=C1Cc2c([nH]c3ccc(Br)cc23)-c2ccccc2N1 [Kenpaullone]
- EA-D expression (immunoblot) (EBV early protein EA-D; 1μM PKI, Fig. 2B): did not affect the expression of EA-D
- TI (therapeutic index, CC50/IC50 ratio) (Epstein-Barr virus (EBV) [1]): 8
- effect on EBV replication in words (Epstein-Barr virus (EBV) [1]; [8]): effective in inhibiting the EBV replication
- IC50 (Epstein-Barr virus (EBV) [4]): 681 nM
- CC50 at 48 h [5]: 5130 nM

Compound: O=c1cc(N2CCOCC2)oc2c(-c3ccccc3)cccc12 [LY 294002]
- CC50 (in vitro): 6160 nM
- EA-D expression (immunoblot) (EBV early protein EA-D; 1μM PKI, Fig. 2B): intermediate
- level of hyperphosphorylated form of EA-D (top band) (EBV early protein EA-D; 1μM PKI, Fig. 2B): more pronounced effect on the levels of the hyperphosphorylated form of EA-D
- TI (therapeutic index, CC50/IC50 ratio) (Epstein-Barr virus (EBV) [1]): 3
- IC50 (Epstein-Barr virus (EBV) [4]): 1840 nM

Compound: CC(C)Nc1nc2cc(Cl)c(Cl)cc2n1[C@H]1O[C@@H](CO)[C@H](O)[C@@H]1O [MBV, maribavir]
- concentration inhibiting pUL97 autophosphorylation activity ([6]; ref Biron et al., Hamirally et al., 2009): 1 μM
- effect on EBV replication (EBV): inhibits EBV replication
- effect on activity of purified EBV-PK (purified EBV-PK): did not inhibit

Compound: N#CCCn1c2ccccc2c2c3c(c4c5ccccc5[nH]c4c21)C(=O)NC3 [NGIC-I, non-glycosidic indolocarbazole I]
- concentration inhibiting pUL97 autophosphorylation activity ([6]; ref Marschall et al.): 0.5 μM
- effect on activity of purified EBV-PK (purified EBV-PK): did not inhibit

Compound: CO[C@@H]1[C@H](N(C)C(=O)c2ccccc2)C[C@H]2O[C@]1(C)n1c3ccccc3c3c4c(c5c6ccccc6n2c5c31)C(=O)NC4 [PKC-412]
- CC50 at 48 h (in vitro): 56 nM
- EA-D expression (immunoblot) (EBV early protein EA-D; 1μM PKI, Fig. 2B): no EA-D expression was detected
- viral reactivation assessed by expression of EA-D, in words (EBV early protein EA-D): block expression of EBV early protein EA-D
- effect on EBV replication in words (Epstein-Barr virus (EBV) [1]; 10μM PKI, Akata cells, 48 hours after IgG induction, listed as PKC412): effective in inhibiting the EBV replication
- IC50 (Epstein-Barr virus (EBV) [4]): 31 nM

Compound: Cn1cc(C2=C(c3cn(CCCSC(=N)N)c4ccccc34)C(=O)NC2=O)c2ccccc21 [Ro 31-8220]
- EA-D expression (immunoblot) (EBV early protein EA-D; 1μM PKI, Fig. 2B): did not affect the expression of EA-D
- level of hyperphosphorylated form of EA-D (top band) (EBV early protein EA-D; 1μM PKI, Fig. 2B): increased level of this form
- effect on EBV replication in words (Epstein-Barr virus (EBV) [1]; [8]): effective in inhibiting the EBV replication
- TI (therapeutic index, CC50/IC50 ratio) (Epstein-Barr virus (EBV) [1]; Akata cells, 48 hours): 3
- IC50 (Epstein-Barr virus (EBV) [1]; Akata cells, 48 hours): 398 nM
- CC50 (Akata cells [7]): 1150 nM

Compound: CC(=O)c1c(O)c(C)c(O)c(Cc2c(O)c3c(c(C(=O)/C=C/c4ccccc4)c2O)OC(C)(C)C=C3)c1O [Rottlerin]
- CC50 at 48 h (in vitro): 1000 nM
- EA-D expression (immunoblot) (EBV early protein EA-D; 1μM PKI, Fig. 2B): did not affect the expression of EA-D
- effect on EBV replication in words (Epstein-Barr virus (EBV) [1]; [8]): effective in inhibiting the EBV replication
- TI (therapeutic index, CC50/IC50 ratio) (Epstein-Barr virus (EBV) [1]; Akata cells, 48 hours): 1
- IC50 (Epstein-Barr virus (EBV) [4]): 983 nM

Compound: CN[C@@H]1C[C@H]2O[C@@](C)([C@@H]1OC)n1c3ccccc3c3c4c(c5c6ccccc6n2c5c31)C(=O)NC4 [Staurosporine]
- CC50 (in vitro): 4 nM
- viral reactivation assessed by expression of EA-D, in words (EBV early protein EA-D): block expression of EBV early protein EA-D
- effect on EBV replication in words (Epstein-Barr virus (EBV) [1]; [8]): inhibited viral replication
- effect on EBV replication in words (Epstein-Barr virus (EBV) [1]; 10μM PKI, Akata cells, 48 hours after IgG induction, listed as Staurosporin): significantly reduced the EBV genome copy numbers

Compound: CC(C)(C)c1cc(C=C(C#N)C#N)cc(C(C)(C)C)c1O [Tyrphostin 9]
- EA-D expression (immunoblot) (EBV early protein EA-D; 1μM PKI, Fig. 2B): did not affect the expression of EA-D
- TI (therapeutic index, CC50/IC50 ratio) (Epstein-Barr virus (EBV) [1]; Akata cells, 48 hours): 3
- IC50 (Epstein-Barr virus (EBV) [1]; Akata cells, 48 hours): 217 nM
- CC50 (Akata cells [7]): 573 nM

Compound: N#CC(=C(/N)Sc1ccccc1N)/C(C#N)=C(/N)Sc1ccccc1N [U-0126]
- EA-D expression (immunoblot) (EBV early protein EA-D; 1μM PKI, Fig. 2B): did not affect the expression of EA-D
- EA-D expression (immunoblot) (EBV early protein EA-D; 10μM PKI, Fig. 2A): remain relatively high
- viral reactivation assessed by expression of EA-D, in words (EBV early protein EA-D): did not inhibit viral reactivation
- TI (therapeutic index, CC50/IC50 ratio) (Epstein-Barr virus (EBV) [1]): 13
- effect on EBV replication in words (Epstein-Barr virus (EBV) [1]; [8]): effective in inhibiting the EBV replication
- IC50 (Epstein-Barr virus (EBV) [1]; Akata cells, 48 hours): 552 nM
- CC50 (Akata cells [2]): 7380 nM

Compound: COC[C@H]1OC(=O)c2coc3c2[C@@]1(C)C1=C(C3=O)[C@@H]2CCC(=O)[C@@]2(C)C[C@H]1OC(C)=O [Wortmannin]
- CC50 at 48 h (in vitro): 4690 nM
- EA-D expression (immunoblot) (EBV early protein EA-D; 1μM PKI, Fig. 2B): no EA-D expression was detected
- viral reactivation assessed by expression of EA-D, in words (EBV early protein EA-D): inhibited EA-D expression
- TI (therapeutic index, CC50/IC50 ratio) (Epstein-Barr virus (EBV) [1]): 13
- effect on EBV replication in words (Epstein-Barr virus (EBV) [1]; [8]): effective in inhibiting the EBV replication
- IC50 (Epstein-Barr virus (EBV) [4]): 367 nM

Compound: O=c1c(O)c(-c2ccc(O)c(O)c2)oc2cc(O)cc(O)c12 [quercetin]
- effect on EBV replication in words (Epstein-Barr virus (EBV) [1]; [8]): lack of activity
